These results are taken from US8440708B2, “Triazole-substituted arylamides as P2X3 and P2X2/3 antagonists” (Roche Palo Alto LLC, priority 2007, dated 2013).

In one experiment the target is T1, human P2X2/3 receptor (Homo sapiens, UniProt P56373+Q9UBL9).
T1 construct: expressed in transfected cells; host or cells: CHO-K1
T1 sequence (Q9UBL9 1-471): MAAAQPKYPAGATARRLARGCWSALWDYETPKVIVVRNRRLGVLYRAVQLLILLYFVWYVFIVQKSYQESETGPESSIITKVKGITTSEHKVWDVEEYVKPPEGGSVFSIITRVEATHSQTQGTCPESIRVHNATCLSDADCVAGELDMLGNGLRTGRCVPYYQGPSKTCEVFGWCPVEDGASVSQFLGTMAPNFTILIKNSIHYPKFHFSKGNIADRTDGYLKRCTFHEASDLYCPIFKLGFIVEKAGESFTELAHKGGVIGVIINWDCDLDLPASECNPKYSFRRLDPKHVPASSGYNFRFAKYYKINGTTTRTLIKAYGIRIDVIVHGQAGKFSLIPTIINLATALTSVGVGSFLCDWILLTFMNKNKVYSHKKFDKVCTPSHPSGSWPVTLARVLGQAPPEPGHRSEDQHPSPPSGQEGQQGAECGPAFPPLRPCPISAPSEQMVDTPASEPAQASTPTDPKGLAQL
T1 sequence (P56373 1-397): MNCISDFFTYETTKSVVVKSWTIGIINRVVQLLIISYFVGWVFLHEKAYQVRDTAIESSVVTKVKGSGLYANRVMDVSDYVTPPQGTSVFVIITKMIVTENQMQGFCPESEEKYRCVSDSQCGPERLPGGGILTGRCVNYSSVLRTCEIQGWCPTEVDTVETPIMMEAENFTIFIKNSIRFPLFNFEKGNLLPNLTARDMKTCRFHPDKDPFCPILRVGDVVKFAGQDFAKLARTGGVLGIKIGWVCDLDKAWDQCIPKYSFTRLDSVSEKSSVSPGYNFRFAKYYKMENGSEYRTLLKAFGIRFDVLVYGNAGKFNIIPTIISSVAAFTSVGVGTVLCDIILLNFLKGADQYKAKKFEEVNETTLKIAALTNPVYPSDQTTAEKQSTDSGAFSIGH
The experiment can be described thus: P2X3/P2X2/3 FLIPR (Fluorometric Imaging Plate Reader) Assay, P2X2/3. In kind it is cell-based. The note with it: CHO-K1 cells transfected with human P2X2/3; agonist α,β-meATP 5 μM; Table 1; read-out: P2X2/3 pKi (converted). In short, it runs like this:
(§1)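 Transfected CHO-K1 cells loaded with Fluo-3 AM (2 μM final) for 1 h at 37 °C, then compound preincubated 20 min at room temperature. α,β-meATP challenge at 1 μM (P2X3) or 5 μM (P2X2/3) final; peak calcium fluorescence (ex 488, em 510-570 nm) over 2 min fitted by nonlinear regression to inhibition curves.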

The target of the next experiment is T2, rat P2X3 receptor (Rattus norvegicus, UniProt P49654).
T2 construct: expressed in transfected cells; host or cells: CHO-K1
T2 sequence (P49654 1-397): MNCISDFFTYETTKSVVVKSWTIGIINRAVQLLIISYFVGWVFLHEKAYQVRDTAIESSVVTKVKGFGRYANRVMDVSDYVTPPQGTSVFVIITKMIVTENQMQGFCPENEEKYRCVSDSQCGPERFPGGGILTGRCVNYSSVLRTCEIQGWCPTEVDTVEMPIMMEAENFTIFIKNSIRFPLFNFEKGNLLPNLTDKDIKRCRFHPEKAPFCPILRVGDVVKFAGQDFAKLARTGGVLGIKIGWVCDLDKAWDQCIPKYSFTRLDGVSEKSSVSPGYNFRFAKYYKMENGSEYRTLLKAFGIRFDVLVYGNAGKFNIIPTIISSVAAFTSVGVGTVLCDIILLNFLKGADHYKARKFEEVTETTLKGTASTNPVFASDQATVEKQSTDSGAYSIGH
Description: P2X3/P2X2/3 FLIPR (Fluorometric Imaging Plate Reader) Assay, P2X3. In kind it is cell-based. The note with it: CHO-K1 cells transfected with rat P2X3; agonist α,β-meATP 1 μM; Table 1; read-out: P2X3 pKi (converted). The method, boiled down: as §1

As to `Cc1ccc(-c2cc(C(=O)NCc3cnc(C)cn3)cc(-n3ncnc3C(C)(C)C)c2)nc1` [Compound 82, 3-(5-tert-Butyl-[1,2,4]triazol-1-yl)-N-(5-methyl-pyrazin-2-ylmethyl)-5-(5-methyl-pyridin-2-yl)-benzamide], the results for the Ki on human P2X2/3 receptor and at rat P2X3 receptor were 1.35 µM and 0.00603 µM, respectively.
`Cc1ccc(-c2cc(C(=O)NCc3cnc(C)cn3)cc(-n3ncnc3C(C)(F)F)c2)nc1` [Compound 69, 3-[5-(1,1-Difluoro-ethyl)-[1,2,4]triazol-1-yl]-N-(5-methyl-pyrazin-2-ylmethyl)-5-(5-methyl-pyridin-2-yl)-benzamide]: the Ki on human P2X2/3 receptor is 0.0269 µM; on rat P2X3 receptor it was 0.00186 µM.
In the same order, the values of `COC(C)c1ncnn1-c1cc(C(=O)NC(C)c2cnccn2)cc(-c2ccc(C)cn2)c1` (centres unmarked) [Compound 58, 3-[5-(1-Methoxy-ethyl)-[1,2,4]triazol-1-yl]-5-(5-methyl-pyridin-2-yl)-N-(1-pyrazin-2-yl-ethyl)-benzamide] are 0.132 µM and 0.017 µM.
In the same order, the values of `COCCc1ncnn1-c1cc(C(=O)NCc2cnc(C)cn2)cc(-c2ccc(C)cn2)c1` [Compound 147, 3-[5-(2-Methoxy-ethyl)-[1,2,4]triazol-1-yl]-N-(5-methyl-pyrazin-2-ylmethyl)-5-(5-methyl-pyridin-2-yl)-benzamide] are 2.45 µM and 0.00457 µM.
Take `CCCc1ncnn1-c1cc(C(=O)NCc2cnc(C)cn2)cc(-c2ccc(Cl)cn2)c1` [Compound 109, 3-(5-Chloro-pyridin-2-yl)-N-(5-methyl-pyrazin-2-ylmethyl)-5-(5-propyl-[1,2,4]triazol-1-yl)-benzamide]: the Ki was 0.372 µM on human P2X2/3 receptor and 0.0055 µM on rat P2X3 receptor.
As for `COCC(C)NC(=O)c1cc(-c2ccc(C)cc2)cc(-n2nncc2C(C)C)c1` (centres unmarked) [Compound 9, 5-(5-Isopropyl-[1,2,3]triazol-1-yl)-4′-methyl-biphenyl-3-carboxylic acid (2-methoxy-1-methyl-ethyl)-amide], the Ki was 0.501 µM at human P2X2/3 receptor and 0.0186 µM at rat P2X3 receptor.
Regarding `CCn1nncc1-c1cc(C(=O)N[C@H](C)COC)cc(-c2ccc(C)cc2)c1` [Compound 37, 5-(3-Ethyl-3H-[1,2,3]triazol-4-yl)-4′-methyl-biphenyl-3-carboxylic acid ((R)-2-methoxy-1-methyl-ethyl)-amide], the values for the Ki on human P2X2/3 receptor and at rat P2X3 receptor were 6.76 µM and 0.38 µM, respectively.
For `Cc1ccc(-c2cc(C(=O)NCc3cnc(C)cn3)cc(-n3ncnc3C(F)(F)F)c2)nc1` [Compound 99, N-(5-Methyl-pyrazin-2-ylmethyl)-3-(5-methyl-pyridin-2-yl)-5-(5-trifluoromethyl-[1,2,4]triazol-1-yl)-benzamide], the Ki on human P2X2/3 receptor is 0.0363 µM; on rat P2X3 receptor, 0.00324 µM.
The corresponding values for `CCn1cc(-c2cc(C(=O)N[C@@H](C)CO)cc(-c3ccc(C)cc3)c2)nn1` [Compound 40, 5-(1-Ethyl-1H-[1,2,3]triazol-4-yl)-4′-methyl-biphenyl-3-carboxylic acid ((S)-2-hydroxy-1-methyl-ethyl)-amide] are 10 µM and 10 µM.
The corresponding values for `Cc1ccc(-c2cc(C(=O)NCc3ccc(=O)n(C)c3)cc(-n3ncnc3C(C)C)c2)nc1` [Compound 153, 3-(5-Isopropyl-[1,2,4]triazol-1-yl)-N-(1-methyl-6-oxo-1,6-dihydro-pyridin-3-ylmethyl)-5-(5-methyl-pyridin-2-yl)-benzamide] are 4.37 µM and 0.0269 µM.
`Cc1ccc(-c2cc(C(=O)NCc3cnc(C)cn3)cc(-c3ncnn3C(C)C)c2)cc1` [Compound 137, 5-(2-Isopropyl-2H-[1,2,4]triazol-3-yl)-4′-methyl-biphenyl-3-carboxylic acid (5-methyl-pyrazin-2-ylmethyl)-amide]: the Ki on human P2X2/3 receptor is 0.398 µM; at rat P2X3 receptor, 0.0115 µM.
`COC[C@@H](C)NC(=O)c1cc(-c2ccc(C)cc2)cc(-n2c(C)nnc2C(C)C)c1` [Compound 32, 5-(3-Isopropyl-5-methyl-[1,2,4]triazol-4-yl)-4′-methyl-biphenyl-3-carboxylic acid ((R)-2-methoxy-1-methyl-ethyl)-amide]: the results for the Ki on human P2X2/3 receptor and at rat P2X3 receptor were 10 µM and 0.427 µM, respectively.
Turning to `COC[C@@H](C)NC(=O)c1cc(-c2ccc(C)cc2)cc(-n2cnnc2C(C)C)c1` [Compound 20, 5-(3-Isopropyl-[1,2,4]triazol-4-yl)-4′-methyl-biphenyl-3-carboxylic acid ((R)-2-methoxy-1-methyl-ethyl)-amide], the Ki is 10 µM at human P2X2/3 receptor and 0.372 µM at rat P2X3 receptor.
Regarding `C[C@@H](CO)NC(=O)c1cc(-c2ccc(Cl)cn2)cc(-n2ncnc2CF)c1` [Compound 93, 3-(5-Chloro-pyridin-2-yl)-5-(5-fluoromethyl-[1,2,4]triazol-1-yl)-N-((S)-2-hydroxy-1-methyl-ethyl)-benzamide], the figures for the Ki at human P2X2/3 receptor and on rat P2X3 receptor were 10 µM and 0.575 µM, respectively.
Consider `Cc1ccc(-c2cc(C(=O)NCc3ccn(C)c(=O)c3)cc(-n3ncnc3C(C)C)c2)nc1` [Compound 159, 3-(5-Isopropyl-[1,2,4]triazol-1-yl)-N-(1-methyl-2-oxo-1,2-dihydro-pyridin-4-ylmethyl)-5-(5-methyl-pyridin-2-yl)-benzamide], for which the Ki was 0.0263 µM on human P2X2/3 receptor and 0.00295 µM on rat P2X3 receptor.
As to `Cc1ccc(-c2cc(C(=O)NC3CC3)cc(-n3ncnc3C(C)N(C)C)c2)cc1` (centres unmarked) [Compound 104, 5-[5-(1-Dimethylamino-ethyl)-[1,2,4]triazol-1-yl]-4′-methyl-biphenyl-3-carboxylic acid cyclopropylamide], the Ki was 0.407 µM at human P2X2/3 receptor and 0.00776 µM on rat P2X3 receptor.
As for `CCCc1ncnn1-c1cc(C(=O)NC2CC2)cc(-c2ccc(C)cn2)c1` [Compound 113, N-Cyclopropyl-3-(5-methyl-pyridin-2-yl)-5-(5-propyl-[1,2,4]triazol-1-yl)-benzamide], the Ki was 1.58 µM on human P2X2/3 receptor and 0.00457 µM on rat P2X3 receptor.
The corresponding values for `COC(C)c1ncnn1-c1cc(C(=O)NCc2cnc(C)cn2)cc(-c2ccc(C)cn2)c1` (centres unmarked) [Compound 133, 3-[5-(1-Methoxy-ethyl)-[1,2,4]triazol-1-yl]-N-(5-methyl-pyrazin-2-ylmethyl)-5-(5-methyl-pyridin-2-yl)-benzamide] are 0.295 µM and 0.011 µM.
In the same order, the values of `C[C@@H](CO)NC(=O)c1cc(-c2ccc(Cl)cn2)cc(-n2ncnc2C(C)(F)F)c1` [Compound 73, 3-(5-Chloro-pyridin-2-yl)-5-[5-(1,1-difluoro-ethyl)-[1,2,4]triazol-1-yl]-N-((S)-2-hydroxy-1-methyl-ethyl)-benzamide] are 2.19 µM and 0.00891 µM.
In the same order, the values of `Cc1ccc(-c2cc(C(=O)N[C@@H](C)CO)cc(-n3ncnc3C(C)C)c2)nc1` [Compound 55, N-(2-Hydroxy-1-methyl-ethyl)-3-(5-isopropyl-[1,2,4]triazol-1-yl)-5-(5-methyl-pyridin-2-yl)-benzamide] are 0.457 µM and 0.00537 µM.
As to `Cc1ccc(-c2cc(C(=O)NCc3cnc(C)cn3)cc(-n3ncnc3C3CNC3)c2)nc1` [Compound 151, 3-(5-Azetidin-3-yl-[1,2,4]triazol-1-yl)-N-(5-methyl-pyrazin-2-ylmethyl)-5-(5-methyl-pyridine-2-yl)-benzamide], the results for the Ki at human P2X2/3 receptor and at rat P2X3 receptor were 7.24 µM and 0.676 µM, respectively.
The corresponding values for `Cc1ccc(-c2cc(C(=O)NC(C)c3cnccn3)cc(-n3c(C)nnc3C(C)C)c2)cc1` (centres unmarked) [Compound 31, 5-(3-Isopropyl-5-methyl-[1,2,4]triazol-4-yl)-4′-methyl-biphenyl-3-carboxylic acid (1-pyrazin-2-yl-ethyl)-amide] are 0.398 µM and 0.0355 µM.
